Data published in patent US7867979B2, “Drug composition for treating 2 type diabetes and diabetic chronicity complications” (Hainan Deze Drug Research Co., Ltd., priority 2006, dated 2011).

Tests used:
[1] = molecular target: T1, aldose reductase (AR) (Rattus norvegicus, UniProt P07943); experiment: Activity of aldose reductase (AR) of lens in GK rats; assay type: in vivo, Goto-Kakizaki rats (GK); settings: oral daily 12 weeks, specific activity, in U/mg protein; for AR activity of lens NADH (0.1 mmol/L): NADH 0.1 mmol/L system; for AR activity of lens NADPH (0.1 mmol/L): NADPH 0.1 mmol/L system
T1 construct: from tissue; host or cells: lens of GK (Goto-Kakizaki) and Wistar rats
Method: GK rats control group (n=10); mangiferin groups (10, 30, 200 mg/kg, each group 10 rats); berberine groups (10, 20, 150 mg/kg, each group 10 rats); composition group 1[[mangiferin (10 mg/kg)+berberine (10 mg/kg)], 10 rats]; composition group 2[[mangiferin (200 mg/kg)+berberine (150 mg/kg)], 10 rats]. Wistar rats are normal control group (10 rats). GK rats control group and Wistar rats group were given saline. The other groups were given test drugs. Test samples were administrated orally at the same time every day for 12 weeks. […] At the End of the experiment, the left side lens of rats was taken, then these lenses were added into glycerol and put into refrigerator (−80° C.□) to preserve to determine AR activity. The determination method of AR activity refer to Maragoudakis's method and change slightly, that is: the activity of enzyme is indicated by the record of the absorbance of NADPH in 340 nm decline IOU. […] The second reaction system is 0.1 mmol/L NADH instead of NADPH, the rest of the reagent is same as one of the first response system. The activity of enzyme and the protein content in tissue homogenate are determined at the same time. a unit enzyme activity is indicated by the quantity of the enzyme that produce 1 μmol NADP^+ (or NDA^+) in one minute. […] The results have been calculated as mean±SD ( x±SD) and the comparisons of the data have been done by t-test. There are ten rats in every group. GK rats control group and wistar rats group were given saline. The other groups were given test drugs. Test samples were administrated orally at the same time every day for 12 weeks. The measurements are as same as the above experiment.

[2] = test system: Propyl dialdehyde (MDA); experiment: Propyl dialdehyde (MDA) in kidney tissue homogenate of GK rats; assay type: in vivo, Goto-Kakizaki rats (GK); settings: oral daily 12 weeks
Method: GK rats control group (n=10); mangiferin groups (10, 30, 200 mg/kg, each group 10 rats); berberine groups (10, 20, 150 mg/kg, each group 10 rats); composition group 1[[mangiferin (10 mg/kg)+berberine (10 mg/kg)], 10 rats]; composition group 2[[mangiferin (200 mg/kg)+berberine (150 mg/kg)], 10 rats]. Wistar rats are normal control group (10 rats). GK rats control group and Wistar rats group were given saline. The other groups were given test drugs. Test samples were administrated orally at the same time every day for 12 weeks. 3.3.1 Preparation of tissue homogenate: Rats were killed by femoral artery bloodletting after administration of the rats for 12-weeks. Kidney tissue of the rats were taken, the blood of kidney tissue were washed with cooling saline (4° C.), then the remnant water was absorbed with filter paper, the kidney tissue was weighed. Per gram kidney tissue was added into 10 ml saline, which was put in homogenized machine (10,000 r/min, 10 seconds, 3rd), 10% tissue homogenate was prepared, the tissue homogenate was centrifuged (4000 r/min) for 10 minutes to get supernatant, the supernatant was saved in −20° C. for determination. 3.3.2.2 Propyl dialdehyde (MDA): MDA is determined by TBA, the test box was bought from Nanjing Jiancheng Bioengineering Research Institute. […] The results have been calculated as mean±SD ( x±SD) and the comparisons of the data have been done by t-test. There are ten rats in every group. GK rats control group and wistar rats group were given saline. The other groups were given test drugs. Test samples were administrated orally at the same time every day for 12 weeks. The measurements are as same as the above experiment.

[3] = 2.0 g once orally; cited from earlier work
[4] = in vivo; cited from earlier work
[5] = cited from earlier work
[6] = test system: rat; settings: intraperitoneal injection once; cited from earlier work

| SMILES | AR activity of lens NADH (0.1 mmol/L) ([1]; 10 mg/kg) | AR activity of lens NADPH (0.1 mmol/L) ([1]; 10 mg/kg) | AR activity of lens NADH (0.1 mmol/L) ([1]; 20 mg/kg) | AR activity of lens NADPH (0.1 mmol/L) ([1]; 20 mg/kg) | AR activity of lens NADH (0.1 mmol/L) ([1]; 150 mg/kg) | AR activity of lens NADPH (0.1 mmol/L) ([1]; 150 mg/kg) | Measurements about oxidation MDA ([2]; 10 mg/kg) | Measurements about oxidation MDA ([2]; 20 mg/kg) | Measurements about oxidation MDA ([2]; 150 mg/kg) | Adverse reactions [3] | Bioavailability [4] | AR activity of lens NADH (0.1 mmol/L) ([1]; 30 mg/kg) | AR activity of lens NADPH (0.1 mmol/L) ([1]; 30 mg/kg) | AR activity of lens NADH (0.1 mmol/L) ([1]; 200 mg/kg) | AR activity of lens NADPH (0.1 mmol/L) ([1]; 200 mg/kg) | Measurements about oxidation MDA ([2]; 30 mg/kg) | Measurements about oxidation MDA ([2]; 200 mg/kg) | Solubility in water [5] | LD50 [6] |
| --- | --- | --- | --- | --- | --- | --- | --- | --- | --- | --- | --- | --- | --- | --- | --- | --- | --- | --- | --- |
| COc1ccc2cc3[n+](cc2c1OC)CCc1cc2c(cc1-3)OCO2 [Berberine] | 2.98 ± 0.60 | 5.64 ± 2.19 | 1.32 ± 0.37 | 2.28 ± 0.51 | 0.94 ± 0.45 | 1.87 ± 0.51 | 4.39 ± 0.90 nmol/mg pro | 3.51 ± 0.46 nmol/mg pro | 2.76 ± 0.40 nmol/mg pro | we don't find any adverse reactions | very low | – | – | – | – | – | – | – | – |
| O=c1c2cc(O)c(O)cc2oc2cc(O)c([C@@H]3O[C@H](CO)[C@@H](O)[C@H](O)[C@H]3O)c(O)c12 [Mangiferin] | 2.89 ± 0.69 | 5.36 ± 2.17 | – | – | – | – | 4.41 ± 0.87 nmol/mg pro | – | – | – | – | 1.64 ± 0.42 | 3.05 ± 0.59 | 0.94 ± 0.45 | 1.87 ± 0.51 | 3.48 ± 0.47 nmol/mg pro | 2.75 ± 0.48 nmol/mg pro | cannot dissolve in water | 365 mg/kg |
